From patent US20200123146A1, “HETEROCYCLIC INTEGRIN AGONISTS” (GB006, Inc., priority 2016, published 2020)

Biological target: T1, integrin CD11b/CD18 (K562 CD11b/CD18 cells) (Homo sapiens, UniProt P05107+P11215)
T1 construct: host or cells: K562 cells stably transfected with wild-type CD11b/CD18
Experiment: K562 cell adhesion assay with immobilized ligands
Type: cell-based
Conditions: cell-based adhesion assay, K562 cells, 30 min at 37° C.
Excerpt: Cell Lines. K562 cells (ATCC) stably transfected with wild-type integrin CD11b/CD18 (K562 CD11b/CD18) have been described previously (Park, etal. J Biomol Screen, 2007. 12(3): 406; Gupta, et al., Blood, 2007. 109(8): 3513; incorporated herein by reference in their entirety). Mutant CD11bE320A has been described previously (Alonso, et al. Curr Biol, 2002. 12(10): R340; incorporated herein by reference in its entirety). K562 cells stably transfected with mutant integrin CD11bE320A/CD18 (K562 E320A) were generated according to literature protocols (Park, supra; Gupta, supra). All cell lines were maintained in Iscove's Modified Dulbecco's Medium (IMDM) supplemented with 10% heat-inactivated fetal bovine serum, 50 IU/ml penicillin and streptomycin and 0.5 mg/ml G418.
K562 Cell Adhesion Assay. Cell adhesion assays with immobilized ligands were performed as previously described (Park, supra). Assays with all different K562 cell lines (K562, K562 CD11b/CD18 and K562 E320A) were performed in an identical fashion. Briefly, 384-well Highbind microtiter plates were coated with a 30 μL solution of ligand in Phosphate Buffered Saline, pH 7.4 containing 1 mM each of Ca^2+ and Mg^2+ ions (PBS^++) overnight at 4° C. Ligand Fg was coated at a concentration of 5-15 μg/mL and iC3b at 1-5 μg/mL. Heterodimer specific mAb IB4 was coated at 1-20 μg/mL. Subsequently, the non-specific sites in the wells were blocked by incubation with 1% non-fat milk in Tris Buffered Saline (TBS), pH 7.4, at room temperature for 1 h. Next, the wells were washed three times with TBS. K562 cells were suspended in the assay buffer (TBS containing 1 mM each of Ca^2+ and Mg^2+ ions (TBS^++)) and were transferred to the ligand-coated wells (30,000 cells/well). Stock solutions of the integrin agonists were prepared by dissolving the compounds in DMSO at a concentration of 2-10 mM. Final concentration of DMSO in the assay was approximately 1-2%. K562 cells were incubated in the presence of increasing concentration of integrin agonist for 30 min at 37° C. To dislodge non-adherent cells, the assay plates were gently inverted and kept in the inverted position for 30 min at room temperature. Cells remaining adherent were fixed using formaldehyde and were quantitated using imaging microscopy, as previously described (Park, supra).

EC50 | Structure (SMILES)
> 10000 nM | CN1C(=O)N(Cc2ccccc2)C(=O)/C1=C/c1ccc(-c2ccc(C(=O)O)cc2)o1 [Compound 2, (Z)-4-(5-((1-Benzyl-3-methyl-2,5-dioxoimidazolidin-4-ylidene)methyl)furan-2-yl)benzoic acid]
> 10000 nM | O=C(O)c1ccc(-c2ccc(/C=C3\NC(=O)N(Cc4ccccc4)C3=O)o2)cc1 [Compound 3, (Z)-4-(5-((1-Benzyl-2,5-dioxoimidazolidin-4-ylidene)methyl)furan-2-yl)benzoic acid]
1000 to 10000 nM | O=C(O)c1ccc(-c2ccc(/C=C3\NC(=S)N(Cc4ccccc4)C3=O)o2)cc1 [Compound 4, (Z)-4-(5-((1-Benzyl-5-oxo-2-thioxoimidazolidin-4-ylidene)methyl)furan-2-yl)benzoic acid]
> 10000 nM | CN1C(=S)N(Cc2ccccc2)C(=O)/C1=C/c1ccc(-c2ccc(C(=O)O)cc2)o1 [Compound 5, (Z)-4-(5-((1-Benzyl-3-methyl-5-oxo-2-thioxoimidazolidin-4-ylidene)methyl)furan-2-yl)benzoic acid]
> 10000 nM | CCOC(=O)c1ccc(-c2ccc(CN3CC(=O)N(Cc4ccccc4)C3=O)o2)cc1 [Compound 6, Ethyl 4-(5-((3-benzyl-2,4-dioxoimidazolidin-1-yl)methyl)furan-2-yl)benzoate]
> 10000 nM | CCOC(=O)c1ccc(-c2ccc(CN3CC(=S)N(Cc4ccccc4)C3=O)o2)cc1 [Compound 7, Ethyl 4-(5-((3-benzyl-2-oxo-4-thioxoimidazolidin-1-yl)methyl)furan-2-yl)benzoate]
> 10000 nM | O=C(O)c1ccc(-c2cccc(/C=C3\OC(=S)N(Cc4ccc(F)cc4)C3=O)c2)cc1 [Compound 9, (Z)-3′-((3-(4-Fluorobenzyl)-4-oxo-2-thioxooxazolidin-5-ylidene)methyl)-[1,1′-biphenyl]-4-carboxylic acid]
250 to 1000 nM | COC(=O)c1ccc(-c2ccc(/C=C3\OC(=S)N(Cc4ccc(F)cc4)C3=O)o2)cn1 [Compound 10, methyl (Z)-5-(5-((3-(4-fluorobenzyl)-4-oxo-2-thioxooxazolidin-5-ylidene)methyl)furan-2-yl)picolinate]
> 10000 nM | O=C(O)c1ccc(-c2ccc(CN3CC(=O)N(Cc4ccccc4)C3=O)o2)cc1 [Compound 11, 4-(5-((3-Benzyl-2,4-dioxoimidazolidin-1-yl)methyl)furan-2-yl)benzoic acid]
250 to 1000 nM | COC(=O)c1ccc(-c2ccc(/C=C3\SC(=S)N(Cc4ccccc4)C3=O)o2)cn1 [Compound 13, Methyl (Z)-5-(5-((3-benzyl-4-oxo-2-thioxothiazolidin-5-ylidene)methyl)furan-2-yl)picolinate]
250 to 1000 nM | O=C(O)c1ccc(-c2ccc(/C=C3\SC(=S)N(Cc4ccccc4)C3=O)o2)nc1 [Compound 14, (Z)-6-(5-((3-Benzyl-4-oxo-2-thioxothiazolidin-5-ylidene)methyl)furan-2-yl)nicotinic acid]
100 to 250 nM | COC(=O)c1ccc(-c2ccc(/C=C3\SC(=S)N(Cc4ccc(F)cc4)C3=O)o2)cn1 [Compound 16, Methyl (Z)-5-(5-((3-(4-fluorobenzyl)-4-oxo-2-thioxothiazolidin-5-ylidene)methyl)furan-2-yl)picolinate]
1000 to 10000 nM | O=C(O)c1ccc(-c2cccc(/C=C3\SC(=S)N(Cc4ccccc4)C3=O)c2)cc1 [Compound 17, (Z)-3′-((3-Benzyl-4-oxo-2-thioxothiazolidin-5-ylidene)methyl)-[1,1′-biphenyl]-4-carboxylic acid]
1000 to 10000 nM | O=C(O)c1ccc(-c2cccc(/C=C3\SC(=S)N(Cc4ccccc4)C3=O)n2)cc1 [Compound 18, (Z)-4-(6-((3-Benzyl-4-oxo-2-thioxothiazolidin-5-ylidene)methyl)pyridin-2-yl)benzoic acid]
1000 to 10000 nM | O=C(O)c1ccc(-c2nccc(/C=C3\SC(=S)N(Cc4ccccc4)C3=O)n2)cc1 [Compound 19, (Z)-4-(4-((3-Benzyl-4-oxo-2-thioxothiazolidin-5-ylidene)methyl)pyrimidin-2-yl)benzoic acid]
1000 to 10000 nM | O=C(O)c1ccc(-c2cccc(/C=C3\SC(=S)N(Cc4ccc(F)cc4)C3=O)c2)cc1 [Compound 20, (Z)-3′-((3-(4-Fluorobenzyl)-4-oxo-2-thioxothiazolidin-5-ylidene)methyl)-[1,1′-biphenyl]-4-carboxylic acid]

EC50 | Structure (SMILES)
250 to 1000 nM | O=C(O)c1ccc(-c2cccc(/C=C3\SC(=S)N(Cc4ccc(F)cc4)C3=O)n2)cc1 [Compound 21, (Z)-4-(6-((3-(4-Fluorobenzyl)-4-oxo-2-thioxothiazolidin-5-ylidene)methyl)pyridin-2-yl)benzoic acid]
1000 to 10000 nM | O=C(O)c1ccc(-c2ccnc(/C=C3\SC(=S)N(Cc4ccc(F)cc4)C3=O)c2)cc1 [Compound 22, (Z)-4-(2-((3-(4-Fluorobenzyl)-4-oxo-2-thioxothiazolidin-5-ylidene)methyl)pyridin-4-yl)benzoic acid]
> 10000 nM | COC(=O)c1ccc(-c2cccc(/C=C3\SC(=S)N(Cc4ccccc4)C3=O)c2)cc1 [Compound 23, methyl (Z)-3′-((3-benzyl-4-oxo-2-thioxothiazolidin-5-ylidene)methyl)-[1,1′-biphenyl]-4-carboxylate]
> 10000 nM | COC(=O)c1ccc(-c2cccc(/C=C3\SC(=S)N(Cc4ccccc4)C3=O)n2)cc1 [Compound 24, Methyl (Z)-4-(6-((3-benzyl-4-oxo-2-thioxothiazolidin-5-ylidene)methyl)pyridin-2-yl)benzoate]
100 to 250 nM | O=C(O)c1ccc(-c2ccc(/C=C3\SC(=S)N(Cc4ccccc4)C3=O)s2)cc1 [Compound 25, (Z)-4-(5-((3-Benzyl-4-oxo-2-thioxothiazolidin-5-ylidene)methyl)thiophen-2-yl)benzoic acid]
250 to 1000 nM | Cc1ccccc1CN1C(=O)/C(=C/c2ccc(-c3ccc(C(=O)O)cc3)o2)SC1=S [Compound 26, (Z)-4-(5-((3-(2-Methylbenzyl)-4-oxo-2-thioxothiazolidin-5-ylidene)methyl)furan-2-yl)benzoic acid]
250 to 1000 nM | COc1ccccc1CN1C(=O)/C(=C/c2ccc(-c3ccc(C(=O)O)cc3)o2)SC1=S [Compound 27, (Z)-4-(5-((3-(2-Methoxybenzyl)-4-oxo-2-thioxothiazolidin-5-ylidene)methyl)furan-2-yl)benzoic acid]
250 to 1000 nM | Cc1cccc(CN2C(=O)/C(=C/c3ccc(-c4ccc(C(=O)O)cc4)o3)SC2=S)c1 [Compound 28, (Z)-4-(5-((3-(3-Methylbenzyl)-4-oxo-2-thioxothiazolidin-5-lidene)methyl)furan-2-yl)benzoic acid]
250 to 1000 nM | COc1cccc(CN2C(=O)/C(=C/c3ccc(-c4ccc(C(=O)O)cc4)o3)SC2=S)c1 [Compound 29, (Z)-4-(5-((3-(3-Methoxybenzyl)-4-oxo-2-thioxothiazolidin-5-ylidene)methyl)furan-2-yl)benzoic acid]
100 to 250 nM | O=C(O)c1ccc(-c2ccc(/C=C3\SC(=S)N(Cc4cccc(Cl)c4)C3=O)o2)cc1 [Compound 30, (Z)-4-(5-((3-(3-Chlorobenzyl)-4-oxo-2-thioxothiazolidin-5-ylidene)methyl)furan-2-yl)benzoic acid]
250 to 1000 nM | Cc1cccc(CN2C(=O)/C(=C/c3ccc(-c4ccc(C(=O)O)cc4)o3)SC2=S)c1C [Compound 31, (Z)-4-(5-((3-(2,3-Dimethylbenzyl)-4-oxo-2-thioxothiazolidin-5-ylidene)methyl)furan-2-yl)benzoic acid]
100 to 250 nM | O=C(O)c1ccc(-c2ccc(/C=C3\SC(=S)N(Cc4ccc(F)cc4)C3=O)o2)cc1 [Compound 32, (Z)-4-(5-((3-(4-Fluorobenzyl)-4-oxo-2-thioxothiazolidin-5-ylidene)methyl)furan-2-yl)benzoic acid]
100 to 250 nM | COc1ccc(CN2C(=O)/C(=C/c3ccc(-c4ccc(C(=O)O)cc4)o3)SC2=S)cc1 [Compound 34, (Z)-4-(5-((3-(4-Methoxybenzyl)-4-oxo-2-thioxothiazolidin-5-ylidene)methyl)furan-2-yl)benzoic acid]
100 to 250 nM | O=C(O)c1ccc(-c2ccc(/C=C3\SC(=S)N(Cc4ccc(Cl)cc4)C3=O)o2)cc1 [Compound 35, (Z)-4-(5-((3-(4-Chlorobenzyl)-4-oxo-2-thioxothiazolidin-5-ylidene)methyl)furan-2-yl)benzoic acid]
250 to 1000 nM | O=C(O)c1ccc(-c2ccc(/C=C3\SC(=S)N(Cc4ccccc4Cl)C3=O)o2)cc1 [Compound 36, (Z)-4-(5-((3-(2-Chlorobenzyl)-4-oxo-2-thioxothiazolidin-5-ylidene)methyl)furan-2-yl)benzoic acid]
